The text below walks through data of publication PMC10611619, “[^99mTc]Tc-PentixaTec: development, extensive pre-clinical evaluation, and first human experience” (European Journal of Nuclear Medicine and Molecular Imaging, 2023).

For orientation: IC50 means the concentration needed to halve the response being measured.

Like-named read-outs stand apart in the source and are kept apart here. Where a SMILES comes first, the peptide text is derived from it. Bridges are numbered along the chain shown (N, C = ends). Roman numbers before positions name the chains, in order. Side-chain parts run from the residue outwards. [ ]: non-standard residue; d: D form. The star is where a group is joined. DOTA = O=C(O)CN1CCN(CC(=O)O)CCN(CC(=O)*)CCN(CC(=O)O)CC1; dTyr(3-I) = N[C@H](Cc1ccc(O)c(I)c1)C(=O)O; 2Nal = N[C@@H](Cc1ccc2ccccc2c1)C(=O)O; dNMeOrn = CN[C@H](CCCN)C(=O)O; HYNIC = NNc1ccc(C(=O)*)cn1; 4Amb = NCc1ccc(C(=O)O)cc1; Mercaptoacetyl = O=C(CS)*; 4Abz = Nc1ccc(C(=O)O)cc1; dDap = NC[C@@H](N)C(=O)O

Data set [1] has as its system mCXCR4. The following applies: Eµ-myc 1080 mouse lymphoma cells; cited from earlier work.
Data set [2] concerns the target human CXCR4 (hCXCR4) (Homo sapiens, UniProt P61073). Nature of the data set: Competitive binding to hCXCR4 (IC50), Jurkat cells, [^125I]FC-131 as radioligand. Conditions: [^125I]FC-131 radioligand.
For data set [3] the following is noted: in vivo; cited from earlier work.
The nature of data set [4]: Lipophilicity (logD), shake-flask n-octanol/PBS pH 7.4. The class given is physicochemical. The method, then:
The lipophilicity (logD, partition coefficient between n-octanol and PBS, pH 7.4) of all ^99mTc-labeled compounds in this study was determined using a modified shake-flask method as described.

Data set [5] relates to Jurkat xenograft bearing CB17/SCID mice. As to the kind of experiment: Biodistribution in Jurkat xenograft-bearing mice, 1 h p.i. The following applies: Jurkat xenograft, n = 5, mean ± SD. The class given is in vivo. The method, then: (§1) Female CB17/SCID mice bearing subcutaneous Jurkat human T cell lymphoma xenografts (for more detailed information, see supplemental material) were injected intravenously with the respective ^99mTc-labeled tracer (5–20 MBq, 0.1–0.2 nmol/mouse) under isofluorane anesthesia and were sacrificed at 1 h post-injection (p.i.). The organs of interest were dissected, and the activity concentration in weighed tissue samples was quantified using a WIZARD^2® 2480 automatic γ-Counter from Perkin Elmer (Waltham MA, USA). Biodistribution data are given in %iD/g and represent means ± SD (groups of n = 4–5 animals). Statistical analysis (t-test) was performed using GraphPad Prism.
(§2) To establish tumor xenografts, Jurkat cells (2 – 3x10^7 cells) were suspended in a mixture of RPMI 1640 medium and Matrigel (1/1; v/v) (BD Biosciences, Heidelberg, Germany), and injected subcutaneously into the right shoulder of 6–10 weeks old CB17-SCID mice from either Charles River GmbH (Sulzfeld, Germany) or the in-house mouse breeding facility. As soon as tumors had grown to a diameter of 5–8 mm (4 – 10 weeks after inoculation), mice were used for the experiments.

In data set [6] the test system is hCXCR4 expressing Chem-1 cells. Nature of the data set: Dual tracer internalization studies with [^125I]FC-131 as internal reference. The format is cell-based, human. The following applies: for internalization in % of total activity / Internalization (% of reference): 90 min; for Internalization (% of reference): normalized to specific internalization of [^125I]FC-131, Chem-1 cells; for internalization area under the curve (AUC): internalization kinetics, Fig. 1. The method, then:
Dual tracer internalization studies using [^125I]FC-131 as internal reference were conducted in hCXCR4 expressing Chem-1 cells in analogy to a previously established protocol. A detailed assay protocol is provided in the supplementary material section.
On the day prior to the experiment, Chem-1 cells were seeded in 24-well-plates at a density of app. 1·10^5 cells per well. On the day of the experiment, the culture medium was removed and the cells were washed once with 250 µL of unsupplemented medium before being left to equilibrate in 200 µL of assay medium (DMEM/F-12 containing 5% BSA) at 37°C for a minimum of 15 min before the experiment. Cells were then coincubated with the respective ^99mTc-labeled compound of interest (0.2 nM) and [^125I]FC-131 (0.2 nM) in the absence (total binding) or presence (non-specific binding) of 100 µM AMD3100 for different time points up to 120 min at 37°C (n=3 wells, respectively, per time point). Incubation was terminated by placing the plate on an ice pack for app. 1 min and by subsequent removal of the incubation medium. Cells were thoroughly rinsed with 250 µL of HBSS. After washing twice with 250 µL of ice cold acid wash buffer (0.02 M NaOAc buffered with AcOH to pH = 5), cells were lysed with 250 µL of 1 N NaOH. The lysate was tranferred to vials and combined with 250 µL of HBSS used for rinsing the wells. Quantification of the amount of free, acid-releasable and internalized ^99mTc- and ^125I-activity was performed using dual isotope protocol on a WIZARD^2® 2480 automatic γ-Counter (Perkin Elmer, Waltham MA, USA).
All data were corrected for non-specific internalization in the presence of […] AMD3100 and were then normalized to the specific internalization observed of the standard radioligand [^125I]FC-131.

Data set [7] is described as follows: Biodistribution in Jurkat xenograft-bearing mice, 1 h p.i. Conditions: female, CB17/SCID, mouse, iv, total radioactivity, n = 5, mean ± SD. The class given is in vivo. The method, then:
as §1, §2

Sequence of human CXCR4 (hCXCR4) (P61073 whole entry): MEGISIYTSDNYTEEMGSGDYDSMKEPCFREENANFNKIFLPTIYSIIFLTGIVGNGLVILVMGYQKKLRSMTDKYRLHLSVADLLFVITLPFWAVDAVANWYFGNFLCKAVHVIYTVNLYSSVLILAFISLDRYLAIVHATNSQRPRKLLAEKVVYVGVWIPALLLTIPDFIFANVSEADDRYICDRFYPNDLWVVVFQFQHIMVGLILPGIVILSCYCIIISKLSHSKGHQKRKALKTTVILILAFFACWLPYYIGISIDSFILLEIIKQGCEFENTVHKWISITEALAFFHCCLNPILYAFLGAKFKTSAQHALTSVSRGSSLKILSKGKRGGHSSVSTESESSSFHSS

`CN1C(=O)[C@@H](Cc2ccc(O)c(I)c2)NC(=O)CNC(=O)[C@H](Cc2ccc3ccccc3c2)NC(=O)[C@H](CCCNC(=N)N)NC(=O)[C@H]1CCCNC(=O)c1ccc(CNC(=O)CN2CCN(CC(=O)O)CCN(CC(=O)O)CCN(CC(=O)O)CC2)cc1` [^natLu-PentixaTher, metal not drawn] (cyclo([dTyr(3-I)][dNMeOrn]([4Amb-DOTA])R[2Nal]G); ring closure inferred): in data set [1], the 50% inhibitory concentration (IC50) is 567 ± 62 nM.

As to `C[C@@H](NC(=O)[C@@H](CCCNC(=N)N)NC(=O)[C@@H](CN)NC(=O)[C@@H](CO)NC(=O)[C@@H](CO)NC(=O)[C@@H](CO)NC(=O)CS)C(=O)Nc1ccc(C(=O)NCCC[C@@H]2C(=O)N[C@@H](CCCNC(=N)N)C(=O)N[C@@H](Cc3ccc4ccccc4c3)C(=O)NCC(=O)N[C@H](Cc3ccc(O)cc3)C(=O)N2C)cc1` [mas3-L6-CPCR4, mas3-dap-r-a-Abz-CPCR4] (I: Mercaptoacetyl-[dS][dS][dS][dDap][dR][dA][4Abz] / II: cyclo([dY][dNMeOrn]R[2Nal]G); amide I:C-II:2), in data set [2], the IC50 came out at 5 ± 1.3 nM.

In the case of `CN1C(=O)[C@@H](Cc2ccc(O)cc2)NC(=O)CNC(=O)[C@H](Cc2ccc3ccccc3c2)NC(=O)[C@H](CCCNC(=N)N)NC(=O)[C@H]1CCCNC(=O)c1ccc(NN)nc1` [[^99mTc]Tc-HYNIC-CPCR4, cyclo(D-Tyr-N-Me-D-Orn([^99mTc]Tc-HYNIC)-Arg-2-Nal-G), metal not drawn] (cyclo([2Nal]G[dY][dNMeOrn](HYNIC)R)), the “effective dose per unit of administered activity” value in data set [3] is 3.92E − 03 mSv/MBq. Besides, in data set [4], the “Lipophilicity (logD)” value is given as “− 1.84”.

As for `C[C@@H](NC(=O)[C@@H](CCCNC(=N)N)NC(=O)[C@@H](CN)NC(=O)[C@@H](CO)NC(=O)[C@@H](CO)NC(=O)[C@@H](CO)NC(=O)CS)C(=O)Nc1ccc(C(=O)NCCC[C@@H]2C(=O)N[C@@H](CCCNC(=N)N)C(=O)N[C@@H](Cc3ccc4ccccc4c3)C(=O)NCC(=O)N[C@H](Cc3ccc(O)cc3)C(=O)N2C)cc1` [[^99mTc]Tc-mas3-L6-CPCR4, metal not drawn] (I: Mercaptoacetyl-[dS][dS][dS][dDap][dR][dA][4Abz] / II: cyclo([dY][dNMeOrn]R[2Nal]G); amide I:C-II:2), the “Biodistribution Tumor (tumor accumulation)” value in data set [5] stood at 6.6 ± 1.0 %iD/g. Moreover, in data set [6], the “internalization in % of total activity” value was 80%, the “Internalization (% of reference)” value was 525 (90 min) % of reference and the “internalization area under the curve (AUC)” value came to 2430.

For `C[C@@H](NC(=O)[C@@H](CCCNC(=N)N)NC(=O)[C@@H](CN)NC(=O)c1ccc(NN)nc1)C(=O)Nc1ccc(C(=O)NCCC[C@@H]2C(=O)N[C@@H](CCCNC(=N)N)C(=O)N[C@@H](Cc3ccc4ccccc4c3)C(=O)NCC(=O)N[C@H](Cc3ccc(O)cc3)C(=O)N2C)cc1` [[^99mTc]Tc-HYNIC-L6-CPCR4, metal not drawn] (cyclo([dY][dNMeOrn]([4Abz-dA-dR-dDap-HYNIC])R[2Nal]G)), the “Biodistribution Tumor (tumor accumulation)” value in data set [5] is 8.0 ± 2.2 %iD/g. For the same compound, the tissue uptake at 1 h in data set [7] (blood, read-out: Biodistribution Blood) was determined as 1.6 ± 0.6 %ID/g; in data set [7] (femur, read-out: Biodistribution Femur), 0.8 ± 0.4 %ID/g; in data set [7] (heart, read-out: Biodistribution Heart), 0.8 ± 0.3 %ID/g; in data set [7] (intestines, read-out: Biodistribution Intestines), 0.6 ± 0.1 %ID/g; in data set [7] (kidneys, read-out: Biodistribution Kidneys), 29.5 ± 4.4 %ID/g; in data set [7] (liver, read-out: Biodistribution Liver) it was 2.6 ± 0.2 %ID/g. The tissue uptake at 1 h in data set [7] (lung, read-out: Biodistribution Lung) came to 1.9 ± 0.4 %ID/g; in data set [7] (muscle, read-out: Biodistribution Muscle), 1.5 ± 1.1 %ID/g; in data set [7] (pancreas, read-out: Biodistribution Pancreas), 0.4 ± 0.3 %ID/g; in data set [7] (spleen, read-out: Biodistribution Spleen), 2.4 ± 1.1 %ID/g; in data set [7] (stomach, read-out: Biodistribution Stomach), 2 ± 0.7 %ID/g. In addition, the “internalization in % of total activity” value in data set [6] is recorded as 77%. Further, the “Internalization (% of reference)” value in data set [6] is on record as 503 (90 min) % of reference. In addition, the “internalization area under the curve (AUC)” value in data set [6] is 2370.
